In one assay the target is T1, hTRPA1 (Homo sapiens, UniProt O75762).
T1 construct: gene TRPA1
The experiment in a line: FLIPR calcium assay (agonism) in HEK293 cells with inducible hTRPA1; non-expressing HEK293 control. In kind it is cell-based.

The next assay has as its target T2, rTRPA1 (Rattus norvegicus, UniProt Q6RI86).
T2 construct: gene Trpa1
The experiment in a line: FLIPR calcium assay in HEK293 cells with inducible rTRPA1 ([…] of maximal AITC response at […]; desensitization to AITC). The class given is cell-based.

Data on 3 compounds can be found in article PMC11793850, “Insights into Molecular Interactions and Biological Effect of Natural Stilbenoids at the TRPA1 Ion Channel” (Chemmedchem, 2024).

One may read the EC50 as the concentration at which the effect is half-maximal. For orientation: Emax means the greatest response seen or fitted, relative to the assay's reference.

Molecules are shown by their SMILES.

T1 sequence (O75762 whole entry): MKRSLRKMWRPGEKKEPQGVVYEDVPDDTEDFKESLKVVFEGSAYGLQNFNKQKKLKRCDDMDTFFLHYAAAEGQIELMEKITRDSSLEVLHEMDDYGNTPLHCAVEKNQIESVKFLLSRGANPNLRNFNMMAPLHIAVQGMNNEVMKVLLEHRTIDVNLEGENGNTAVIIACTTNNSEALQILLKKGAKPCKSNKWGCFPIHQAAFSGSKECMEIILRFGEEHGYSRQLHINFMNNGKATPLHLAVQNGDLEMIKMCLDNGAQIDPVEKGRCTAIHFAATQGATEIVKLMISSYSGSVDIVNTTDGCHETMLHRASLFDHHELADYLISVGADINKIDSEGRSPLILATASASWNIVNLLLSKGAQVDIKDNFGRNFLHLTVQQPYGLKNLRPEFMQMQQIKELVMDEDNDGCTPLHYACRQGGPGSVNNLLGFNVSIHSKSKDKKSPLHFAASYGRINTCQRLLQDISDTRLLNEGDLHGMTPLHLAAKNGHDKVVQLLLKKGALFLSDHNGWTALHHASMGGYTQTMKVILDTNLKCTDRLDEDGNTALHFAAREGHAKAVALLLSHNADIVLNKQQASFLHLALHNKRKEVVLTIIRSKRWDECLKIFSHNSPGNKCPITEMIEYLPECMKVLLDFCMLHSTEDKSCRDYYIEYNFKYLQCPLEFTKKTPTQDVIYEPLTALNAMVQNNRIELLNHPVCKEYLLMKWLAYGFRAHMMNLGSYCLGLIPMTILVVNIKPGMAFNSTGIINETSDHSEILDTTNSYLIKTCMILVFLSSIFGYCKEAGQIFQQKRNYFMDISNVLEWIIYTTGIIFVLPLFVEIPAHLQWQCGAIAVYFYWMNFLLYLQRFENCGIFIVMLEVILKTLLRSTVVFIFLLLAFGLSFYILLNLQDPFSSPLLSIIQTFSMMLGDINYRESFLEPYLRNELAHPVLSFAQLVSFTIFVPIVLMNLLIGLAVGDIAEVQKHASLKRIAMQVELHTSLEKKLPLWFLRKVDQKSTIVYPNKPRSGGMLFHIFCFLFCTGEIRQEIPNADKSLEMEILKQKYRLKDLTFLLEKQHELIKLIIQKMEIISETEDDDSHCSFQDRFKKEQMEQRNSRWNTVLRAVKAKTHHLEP
T2 sequence (Q6RI86 whole entry): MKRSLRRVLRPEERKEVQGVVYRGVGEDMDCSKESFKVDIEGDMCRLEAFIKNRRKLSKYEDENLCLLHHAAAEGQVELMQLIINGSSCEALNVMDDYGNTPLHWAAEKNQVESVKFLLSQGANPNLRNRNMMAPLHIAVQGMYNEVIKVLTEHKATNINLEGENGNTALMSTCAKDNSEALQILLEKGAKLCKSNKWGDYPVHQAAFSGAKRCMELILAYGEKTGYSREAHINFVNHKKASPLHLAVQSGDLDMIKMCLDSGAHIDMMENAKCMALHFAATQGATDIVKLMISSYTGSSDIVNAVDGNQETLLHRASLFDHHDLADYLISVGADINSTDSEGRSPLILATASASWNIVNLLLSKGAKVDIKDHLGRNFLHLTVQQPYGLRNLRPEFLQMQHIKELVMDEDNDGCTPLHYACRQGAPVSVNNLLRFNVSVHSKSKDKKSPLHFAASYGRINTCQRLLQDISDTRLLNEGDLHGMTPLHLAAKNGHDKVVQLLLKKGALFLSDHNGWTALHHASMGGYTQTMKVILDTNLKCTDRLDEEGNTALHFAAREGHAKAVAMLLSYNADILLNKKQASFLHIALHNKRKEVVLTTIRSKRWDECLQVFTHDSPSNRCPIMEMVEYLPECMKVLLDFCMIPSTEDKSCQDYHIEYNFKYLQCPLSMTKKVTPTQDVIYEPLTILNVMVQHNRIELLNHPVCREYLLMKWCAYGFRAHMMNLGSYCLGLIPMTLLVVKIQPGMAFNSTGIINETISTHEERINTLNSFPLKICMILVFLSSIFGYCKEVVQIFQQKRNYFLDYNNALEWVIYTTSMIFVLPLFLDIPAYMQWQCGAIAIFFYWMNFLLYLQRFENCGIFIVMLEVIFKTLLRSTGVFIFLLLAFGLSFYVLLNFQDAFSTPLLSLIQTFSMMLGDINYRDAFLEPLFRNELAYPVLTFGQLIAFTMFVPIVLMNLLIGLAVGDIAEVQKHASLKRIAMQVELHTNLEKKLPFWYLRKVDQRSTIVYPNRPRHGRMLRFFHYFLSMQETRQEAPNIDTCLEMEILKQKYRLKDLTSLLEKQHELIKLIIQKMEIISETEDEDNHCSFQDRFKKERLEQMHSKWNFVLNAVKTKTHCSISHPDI

In the case of `Oc1cc(O)cc(/C=C/c2ccccc2)c1` [Pinosylvin], the EC50 at hTRPA1 amounted to 12 ± 1.1 µM.

Take `Oc1ccc(/C=C/c2cc(O)cc(O)c2)cc1` [Resveratrol]: the Emax at 100 µM at rTRPA1 turned out to be 35%. In addition, the EC50 on hTRPA1 was found to be 3.2 ± 0.2 µM.

As for `COc1cc(O)cc(/C=C/c2ccccc2)c1` [pinosylvin monomethyl ether], the EC50 at hTRPA1 stood at 11.2 ± 0.8 µM.
